Drawing on article PMC3985611 (Chemistry & biology, 2013), this text covers IC50 for one molecule.

This assay concerns the target Hsp70 (Homo sapiens, UniProt P0DMV8). The assay is described as follows: competition of YK5-biotin pull-down in cancer cells. Type of assay: cell-based.

Sequence of Hsp70 (P0DMV8 2-641): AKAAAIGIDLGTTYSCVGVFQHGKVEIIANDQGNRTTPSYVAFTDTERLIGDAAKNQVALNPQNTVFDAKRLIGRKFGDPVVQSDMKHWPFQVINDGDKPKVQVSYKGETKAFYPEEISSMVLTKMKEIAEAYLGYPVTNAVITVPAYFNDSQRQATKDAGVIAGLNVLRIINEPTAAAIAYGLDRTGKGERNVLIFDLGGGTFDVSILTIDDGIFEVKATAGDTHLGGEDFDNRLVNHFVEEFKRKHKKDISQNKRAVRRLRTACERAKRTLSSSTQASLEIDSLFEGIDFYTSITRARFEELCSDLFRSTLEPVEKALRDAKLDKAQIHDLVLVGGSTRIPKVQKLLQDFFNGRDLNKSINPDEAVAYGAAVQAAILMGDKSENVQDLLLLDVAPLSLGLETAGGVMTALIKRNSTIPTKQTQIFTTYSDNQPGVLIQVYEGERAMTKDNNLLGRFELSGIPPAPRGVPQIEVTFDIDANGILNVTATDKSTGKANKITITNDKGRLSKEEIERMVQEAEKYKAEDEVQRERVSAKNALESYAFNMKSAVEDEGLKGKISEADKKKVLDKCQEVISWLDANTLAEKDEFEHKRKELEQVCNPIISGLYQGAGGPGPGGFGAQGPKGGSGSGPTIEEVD

What is called IC50 is the concentration that inhibits the measured activity by half. Lower therefore signals greater potency. Molecule `C=CC(=O)Nc1cc(N)nc(Sc2c(OC)nc(N3CCN(C)CC3)nc2OC)n1` [YK5] came in with an IC50 of about 7 µM.
